Measured values reported in PMC12238253 (Nature Communications, 2025).
pKd: −log10 of the molar value.

Target: T1, His6-LIMP-2_35-430 (Homo sapiens, UniProt Q14108)
T1 sequence (Q14108 35-430): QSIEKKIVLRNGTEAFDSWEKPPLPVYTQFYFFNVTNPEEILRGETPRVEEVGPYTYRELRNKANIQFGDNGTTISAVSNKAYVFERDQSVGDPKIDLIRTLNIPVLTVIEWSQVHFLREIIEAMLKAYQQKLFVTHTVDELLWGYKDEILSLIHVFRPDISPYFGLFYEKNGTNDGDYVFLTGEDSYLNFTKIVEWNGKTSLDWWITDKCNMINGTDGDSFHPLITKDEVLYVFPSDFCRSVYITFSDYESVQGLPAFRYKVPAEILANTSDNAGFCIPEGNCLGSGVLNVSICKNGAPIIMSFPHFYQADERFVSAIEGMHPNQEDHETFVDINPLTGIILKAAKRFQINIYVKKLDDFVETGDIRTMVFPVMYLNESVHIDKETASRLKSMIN
Assay: microscale thermophoresis
Type: binding

SMILES	pKd
CC(C)CCC[C@@H](C)[C@H]1CC[C@H]2[C@@H]3CC=C4C[C@@H](O)CC[C@]4(C)[C@H]3CC[C@]12C [cholesterol]	5.43
COc1ccc2cc1Oc1ccc(cc1)C[C@H]1c3cc(c(OC)cc3CCN1C)Oc1c(OC)c(OC)cc3c1[C@H](C2)N(C)CC3 [Tetrandrine]	3.62
